# According to patent publication US8604217B2, “Compound, a process for its preparation, a pharmaceutical composition, use of a compound, a method for modulating or regulating serine/threonine kinases and a serine/threonine kinases modulating agent” (Selvita S.A., priority 2009, dated 2013):
# Columns and labels:
# Test in all cases: KinaseProfiler kinase panel
# Assay type in all cases: biochemical
# PAK6(h) = PAK6(h) (Homo sapiens (Human), UniProt Q9NQU5)
# Ron(h) = Ron(h) (Homo sapiens (Human), UniProt Q04912)
# GRK7(h) = GRK7(h) (Homo sapiens (Human), UniProt Q8WTQ7)
# CHK1(h) = CHK1(h) (Homo sapiens (Human), UniProt O14757)
# Src(1-530)(h) = Src(1-530)(h) (Homo sapiens (Human), UniProt P12931)
# Met(M1268T)(h) = Met(M1268T)(h) (Homo sapiens (Human), UniProt P08581, M1268T)
# CaMKI(h) = CaMKI(h) (Homo sapiens (Human), UniProt Q14012)
# ROCK-II(r) = ROCK-II(r) (Rattus norvegicus (Rat), UniProt Q62868)
# Abl(m) = Abl(m) (Mus musculus (Mouse), UniProt P00520)
# FGFR1(V561M)(h) = FGFR1(V561M)(h) (Homo sapiens (Human), UniProt P11362, V561M)
# SGK3(h) = SGK3(h) (Homo sapiens (Human), UniProt Q96BR1)
# CSK(h) = CSK(h) (Homo sapiens (Human), UniProt P41240)
# mTOR(h) = mTOR(h) (Homo sapiens (Human), UniProt P42345)
# CK1γ3(h) = CK1γ3(h) (Homo sapiens (Human), UniProt Q9Y6M4)
# IKKα(h) = IKKα(h) (Homo sapiens (Human), UniProt O15111)
# EphA8(h) = EphA8(h) (Homo sapiens (Human), UniProt P29322)
# PAK5(h) = PAK5(h) (Homo sapiens (Human), UniProt Q9P286)
# Abl (Q252H) (h) = Abl (Q252H) (h) (Homo sapiens (Human), UniProt P00519, Q252H)
# CLK2(h) = CLK2(h) (Homo sapiens (Human), UniProt P49760)
# ALK4(h) = ALK4(h) (Homo sapiens (Human), UniProt P36896)
# GRK5(h) = GRK5(h) (Homo sapiens (Human), UniProt P34947)
# PKCε(h) = PKCε(h) (Homo sapiens (Human), UniProt Q02156)
# CK1δ(h) = CK1δ(h) (Homo sapiens (Human), UniProt P48730)
# TAO2(h) = TAO2(h) (Homo sapiens (Human), UniProt Q9UL54)
# JNK3(h) = JNK3(h) (Homo sapiens (Human), UniProt P53779)
# FAK(h) = FAK(h) (Homo sapiens (Human), UniProt Q05397)
# PKCθ(h) = PKCθ(h) (Homo sapiens (Human), UniProt Q04759)
# IR(h), activated = IR(h), activated (Homo sapiens (Human), UniProt P06213)
# EGFR(h) = EGFR(h) (Homo sapiens (Human), UniProt P00533)
# CDK3/cyclinE(h) = CDK3/cyclinE(h) (Homo sapiens (Human), UniProt Q00526)
# BTK(R28H)(h) = BTK(R28H)(h) (Homo sapiens (Human), UniProt Q06187, R28H)
# MAPK2(m) = MAPK2(m) (Mus musculus (Mouse), UniProt P63085)
# PKCμ(h) = PKCμ(h) (Homo sapiens (Human), UniProt Q15139)
# TRKB(h) = TRKB(h) (Homo sapiens (Human), UniProt Q16620)
# Ret (V804L)(h) = Ret (V804L)(h) (Homo sapiens (Human), UniProt P07949, V804L)
# Fer(h) = Fer(h) (Homo sapiens (Human), UniProt P16591)
# Ros(h) = Ros(h) (Homo sapiens (Human), UniProt P08922)
# Snk(h) = Snk(h) (Homo sapiens (Human), UniProt Q9NYY3)
# NEK2(h) = NEK2(h) (Homo sapiens (Human), UniProt P51955)
# Lyn(m) = Lyn(m) (Mus musculus (Mouse), UniProt P25911)
# Chain of Lyn(m) (P25911 whole entry): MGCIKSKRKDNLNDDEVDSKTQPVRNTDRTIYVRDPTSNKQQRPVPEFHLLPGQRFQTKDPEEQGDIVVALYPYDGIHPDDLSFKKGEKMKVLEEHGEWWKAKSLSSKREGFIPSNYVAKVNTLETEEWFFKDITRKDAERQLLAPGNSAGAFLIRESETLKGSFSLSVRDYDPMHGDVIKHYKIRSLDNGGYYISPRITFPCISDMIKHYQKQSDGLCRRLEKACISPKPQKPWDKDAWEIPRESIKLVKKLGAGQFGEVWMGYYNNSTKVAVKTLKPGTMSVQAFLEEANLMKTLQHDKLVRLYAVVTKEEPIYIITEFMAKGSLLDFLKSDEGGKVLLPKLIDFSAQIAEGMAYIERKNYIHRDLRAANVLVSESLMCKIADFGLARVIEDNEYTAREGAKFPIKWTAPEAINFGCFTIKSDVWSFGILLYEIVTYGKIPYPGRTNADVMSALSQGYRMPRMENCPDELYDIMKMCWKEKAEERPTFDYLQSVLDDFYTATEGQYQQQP
# Chain of Src(1-530)(h) (P12931 whole entry, looked up): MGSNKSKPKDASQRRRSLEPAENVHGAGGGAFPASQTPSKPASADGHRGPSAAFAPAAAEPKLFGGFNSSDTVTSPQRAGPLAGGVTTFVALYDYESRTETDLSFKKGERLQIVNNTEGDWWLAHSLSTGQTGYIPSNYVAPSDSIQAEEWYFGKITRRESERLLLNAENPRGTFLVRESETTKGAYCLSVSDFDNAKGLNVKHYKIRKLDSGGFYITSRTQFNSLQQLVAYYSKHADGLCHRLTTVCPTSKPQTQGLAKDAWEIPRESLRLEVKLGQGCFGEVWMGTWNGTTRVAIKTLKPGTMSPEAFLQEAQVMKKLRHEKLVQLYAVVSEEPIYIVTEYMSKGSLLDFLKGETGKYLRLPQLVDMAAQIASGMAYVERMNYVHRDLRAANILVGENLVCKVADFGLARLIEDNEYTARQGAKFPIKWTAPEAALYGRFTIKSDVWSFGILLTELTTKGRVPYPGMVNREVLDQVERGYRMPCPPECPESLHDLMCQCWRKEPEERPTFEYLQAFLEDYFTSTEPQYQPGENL
# Chain of NEK2(h) (P51955 whole entry): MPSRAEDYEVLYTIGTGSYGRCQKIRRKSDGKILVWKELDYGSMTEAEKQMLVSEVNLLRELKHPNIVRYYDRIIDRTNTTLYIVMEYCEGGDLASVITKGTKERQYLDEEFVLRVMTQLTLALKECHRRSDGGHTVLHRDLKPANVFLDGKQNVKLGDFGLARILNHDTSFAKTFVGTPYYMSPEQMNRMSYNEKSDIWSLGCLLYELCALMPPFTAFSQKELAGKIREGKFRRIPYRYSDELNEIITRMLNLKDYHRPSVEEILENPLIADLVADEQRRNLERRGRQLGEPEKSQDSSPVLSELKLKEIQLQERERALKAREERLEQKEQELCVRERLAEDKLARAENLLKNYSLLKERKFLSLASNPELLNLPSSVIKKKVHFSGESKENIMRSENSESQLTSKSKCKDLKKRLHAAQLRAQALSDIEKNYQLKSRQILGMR
# Chain of TRKB(h) (Q16620 32-822): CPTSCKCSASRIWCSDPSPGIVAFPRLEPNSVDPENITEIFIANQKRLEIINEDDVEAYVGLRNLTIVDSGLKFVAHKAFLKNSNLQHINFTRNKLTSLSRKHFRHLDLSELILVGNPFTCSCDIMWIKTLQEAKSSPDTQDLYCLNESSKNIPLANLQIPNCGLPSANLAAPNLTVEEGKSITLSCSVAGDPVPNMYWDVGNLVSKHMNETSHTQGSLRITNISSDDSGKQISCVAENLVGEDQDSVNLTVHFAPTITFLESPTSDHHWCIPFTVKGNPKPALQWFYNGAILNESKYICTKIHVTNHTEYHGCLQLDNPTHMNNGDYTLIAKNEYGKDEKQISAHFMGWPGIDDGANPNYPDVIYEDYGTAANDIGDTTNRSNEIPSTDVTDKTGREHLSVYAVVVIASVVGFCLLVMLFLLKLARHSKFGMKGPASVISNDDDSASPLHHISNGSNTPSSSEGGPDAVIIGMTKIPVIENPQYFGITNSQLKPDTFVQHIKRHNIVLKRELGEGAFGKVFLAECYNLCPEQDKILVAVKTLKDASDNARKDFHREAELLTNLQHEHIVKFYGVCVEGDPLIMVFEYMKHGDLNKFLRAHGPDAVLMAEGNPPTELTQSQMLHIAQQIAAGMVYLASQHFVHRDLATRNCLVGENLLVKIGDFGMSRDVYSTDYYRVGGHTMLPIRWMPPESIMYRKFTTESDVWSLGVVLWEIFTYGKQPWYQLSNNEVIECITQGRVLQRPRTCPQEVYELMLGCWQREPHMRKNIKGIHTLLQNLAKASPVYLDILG
# Chain of FGFR1(V561M)(h) (P11362 22-822 V561M): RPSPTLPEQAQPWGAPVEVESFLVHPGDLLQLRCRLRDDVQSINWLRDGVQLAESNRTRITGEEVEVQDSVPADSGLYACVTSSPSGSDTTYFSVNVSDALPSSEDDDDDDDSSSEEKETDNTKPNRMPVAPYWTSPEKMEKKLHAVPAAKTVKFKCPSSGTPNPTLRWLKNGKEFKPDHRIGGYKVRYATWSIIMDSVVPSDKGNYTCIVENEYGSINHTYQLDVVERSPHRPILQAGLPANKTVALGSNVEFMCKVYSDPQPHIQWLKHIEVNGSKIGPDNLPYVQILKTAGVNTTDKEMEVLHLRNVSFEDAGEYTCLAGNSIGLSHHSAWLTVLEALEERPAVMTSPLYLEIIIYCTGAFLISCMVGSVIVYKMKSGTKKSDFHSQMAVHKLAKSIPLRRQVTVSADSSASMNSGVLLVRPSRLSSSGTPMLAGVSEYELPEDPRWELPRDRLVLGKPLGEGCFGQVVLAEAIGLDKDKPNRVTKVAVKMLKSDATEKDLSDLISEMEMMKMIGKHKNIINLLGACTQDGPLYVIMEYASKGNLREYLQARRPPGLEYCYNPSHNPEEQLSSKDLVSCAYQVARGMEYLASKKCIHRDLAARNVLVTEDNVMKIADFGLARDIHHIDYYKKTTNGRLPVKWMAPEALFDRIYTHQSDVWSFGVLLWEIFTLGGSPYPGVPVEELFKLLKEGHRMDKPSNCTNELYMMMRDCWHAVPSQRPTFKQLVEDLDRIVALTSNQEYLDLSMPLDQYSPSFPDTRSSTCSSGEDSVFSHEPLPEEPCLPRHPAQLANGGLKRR
# Chain of JNK3(h) (P53779 whole entry): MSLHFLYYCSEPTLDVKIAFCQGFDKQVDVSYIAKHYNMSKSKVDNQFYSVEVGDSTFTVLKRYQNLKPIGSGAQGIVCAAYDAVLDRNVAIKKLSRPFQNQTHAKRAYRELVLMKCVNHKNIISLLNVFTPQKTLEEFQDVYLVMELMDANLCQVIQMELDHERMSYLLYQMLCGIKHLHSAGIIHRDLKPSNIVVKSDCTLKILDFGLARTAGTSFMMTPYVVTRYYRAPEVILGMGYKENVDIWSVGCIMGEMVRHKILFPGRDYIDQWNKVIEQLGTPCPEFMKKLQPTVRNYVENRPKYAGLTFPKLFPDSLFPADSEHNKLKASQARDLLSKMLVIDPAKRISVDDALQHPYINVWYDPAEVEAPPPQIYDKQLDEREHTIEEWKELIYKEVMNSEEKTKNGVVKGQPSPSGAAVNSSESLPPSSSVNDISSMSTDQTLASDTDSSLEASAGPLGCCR
# Chain of PAK5(h) (Q9P286 whole entry): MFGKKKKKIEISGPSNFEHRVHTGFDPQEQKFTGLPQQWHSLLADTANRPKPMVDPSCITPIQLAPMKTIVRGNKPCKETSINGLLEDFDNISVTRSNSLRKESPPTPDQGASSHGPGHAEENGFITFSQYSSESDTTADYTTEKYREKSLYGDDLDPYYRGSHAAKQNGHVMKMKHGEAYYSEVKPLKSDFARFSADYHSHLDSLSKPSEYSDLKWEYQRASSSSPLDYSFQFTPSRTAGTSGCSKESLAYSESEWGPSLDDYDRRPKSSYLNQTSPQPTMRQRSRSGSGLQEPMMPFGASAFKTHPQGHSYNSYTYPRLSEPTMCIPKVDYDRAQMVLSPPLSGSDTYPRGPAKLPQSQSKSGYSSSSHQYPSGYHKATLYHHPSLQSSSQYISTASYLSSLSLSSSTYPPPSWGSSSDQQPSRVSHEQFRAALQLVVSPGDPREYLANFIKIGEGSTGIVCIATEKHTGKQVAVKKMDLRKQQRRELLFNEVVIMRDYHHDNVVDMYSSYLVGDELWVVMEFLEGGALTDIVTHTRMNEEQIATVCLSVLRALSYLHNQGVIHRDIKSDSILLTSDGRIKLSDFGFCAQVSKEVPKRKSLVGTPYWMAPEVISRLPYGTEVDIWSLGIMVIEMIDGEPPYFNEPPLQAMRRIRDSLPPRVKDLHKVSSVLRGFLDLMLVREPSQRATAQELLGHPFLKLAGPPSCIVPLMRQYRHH
# Chain of PAK6(h) (Q9NQU5 whole entry): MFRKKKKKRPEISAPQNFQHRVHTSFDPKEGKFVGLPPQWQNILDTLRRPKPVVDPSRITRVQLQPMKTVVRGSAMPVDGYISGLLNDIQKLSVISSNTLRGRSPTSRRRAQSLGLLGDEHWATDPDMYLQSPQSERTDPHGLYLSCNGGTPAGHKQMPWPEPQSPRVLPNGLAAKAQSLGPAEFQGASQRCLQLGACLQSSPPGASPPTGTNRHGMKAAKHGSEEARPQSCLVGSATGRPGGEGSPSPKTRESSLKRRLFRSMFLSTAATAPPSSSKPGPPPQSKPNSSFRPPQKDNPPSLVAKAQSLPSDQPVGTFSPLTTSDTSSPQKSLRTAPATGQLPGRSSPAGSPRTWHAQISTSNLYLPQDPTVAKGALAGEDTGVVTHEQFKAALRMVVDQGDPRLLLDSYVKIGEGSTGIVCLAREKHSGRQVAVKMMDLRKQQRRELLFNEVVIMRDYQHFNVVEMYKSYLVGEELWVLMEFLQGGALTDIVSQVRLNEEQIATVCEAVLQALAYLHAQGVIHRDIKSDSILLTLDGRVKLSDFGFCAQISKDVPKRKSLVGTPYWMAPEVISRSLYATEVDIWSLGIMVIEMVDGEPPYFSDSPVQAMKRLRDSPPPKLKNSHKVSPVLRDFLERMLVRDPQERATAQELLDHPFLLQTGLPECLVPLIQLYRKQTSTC
smiles,measurement,setting,value
"CCn1c(N2CCNCC2)nc2c(Br)c(Br)c(Br)c(Br)c21 [Compound 416, 4,5,6,7-tetrabromo-1-ethyl-2-(piperazin-1-yl)-1H-benzo[d]imidazole]",remaining activity at 1 µM,PAK6(h),85%
same,remaining activity at 1 µM,Ron(h),108%
same,remaining activity at 1 µM,GRK7(h),93%
same,remaining activity at 1 µM,CHK1(h),113%
same,remaining activity at 1 µM,Src(1-530)(h),65%
same,remaining activity at 1 µM,Met(M1268T)(h),70%
same,remaining activity at 1 µM,CaMKI(h),89%
same,remaining activity at 1 µM,ROCK-II(r),71%
same,remaining activity at 1 µM,Abl(m),90%
same,remaining activity at 1 µM,FGFR1(V561M)(h),69%
same,remaining activity at 1 µM,SGK3(h),92%
same,remaining activity at 1 µM,CSK(h),91%
same,remaining activity at 1 µM,mTOR(h),95%
same,remaining activity at 1 µM,CK1γ3(h),89%
same,remaining activity at 1 µM,IKKα(h),56%
same,remaining activity at 1 µM,EphA8(h),102%
same,remaining activity at 1 µM,PAK5(h),93%
same,remaining activity at 1 µM,Abl (Q252H) (h),98%
same,remaining activity at 1 µM,CLK2(h),2%
same,remaining activity at 1 µM,ALK4(h),112%
same,remaining activity at 1 µM,GRK5(h),96%
same,remaining activity at 1 µM,PKCε(h),104%
same,remaining activity at 1 µM,CK1δ(h),62%
same,remaining activity at 1 µM,TAO2(h),82%
same,remaining activity at 1 µM,JNK3(h),87%
same,remaining activity at 1 µM,FAK(h),94%
same,remaining activity at 1 µM,PKCθ(h),26%
same,remaining activity at 1 µM,"IR(h), activated",93%
same,remaining activity at 1 µM,EGFR(h),89%
same,remaining activity at 1 µM,CDK3/cyclinE(h),16%
same,remaining activity at 1 µM,BTK(R28H)(h),102%
same,remaining activity at 1 µM,MAPK2(m),82%
same,remaining activity at 1 µM,PKCμ(h),30%
same,remaining activity at 1 µM,TRKB(h),37%
same,remaining activity at 1 µM,Ret (V804L)(h),26%
same,remaining activity at 1 µM,Fer(h),100%
same,remaining activity at 1 µM,Ros(h),104%
same,remaining activity at 1 µM,Snk(h),90%
same,remaining activity at 1 µM,NEK2(h),91%
same,remaining activity at 1 µM,Lyn(m),73%
